Assay results from US5945434A, “Indazole derivatives having monocyclic amine” (Nisshin Flour Milling Co., Ltd., priority 1995, dated 1999).
Read-outs that look alike come from different tables or passages of the source.

Tests used:
5-HT4 receptor = conditions: WO 9303725; cited from earlier work
[1] = molecular target: T1, 5-HT4 receptor (rat oesophageal tunica muscularis mucosae) (Rattus norvegicus, UniProt Q62758); assay: 5-HT4 agonist activity: relaxation of carbachol-contracted rat oesophageal tunica muscularis mucosae; assay type: cell-based
T1 construct: oesophageal tunica muscularis mucosae excised from rats; from tissue; host or cells: rat oesophageal tunica muscularis mucosae
T1 sequence (Q62758 whole entry): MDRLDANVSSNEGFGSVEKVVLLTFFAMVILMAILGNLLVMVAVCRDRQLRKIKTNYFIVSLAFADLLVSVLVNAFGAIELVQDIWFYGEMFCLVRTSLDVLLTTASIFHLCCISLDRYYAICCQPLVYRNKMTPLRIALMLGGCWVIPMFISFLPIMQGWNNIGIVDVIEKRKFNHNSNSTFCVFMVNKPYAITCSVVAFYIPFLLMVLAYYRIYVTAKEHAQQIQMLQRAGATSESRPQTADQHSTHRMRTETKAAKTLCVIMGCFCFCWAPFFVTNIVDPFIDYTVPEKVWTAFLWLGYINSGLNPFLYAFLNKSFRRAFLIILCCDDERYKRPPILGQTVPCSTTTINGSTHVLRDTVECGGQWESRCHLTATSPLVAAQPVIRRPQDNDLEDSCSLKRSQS
Protocol: The agonist activities of the indazole derivatives of the present invention and Mosapride were determined by the following method, that is, the method determining 5-HT4 agonist activity by using rat oesophageal tunica muscularis mucosae (Naunyn-Schmiedeberg's Arch. Pharmacol., Vol. 343, 439-446, 1991).
According to the method of the literature, the oesophageal tunica muscularis mucosae excised from rats were suspended in an organ bath containing Krebs-Henseleit solution aerated with a mixed gas (95% O2, 5% CO2) and contracted with carbachol (1×10^-6 M). After the contraction was stabilized, the cumulative administration of the compounds was performed to determine the relaxation of the rat oesophagus pre-contracted with carbachol. The concentration (ED50) to cause 50% relaxation of the carbachol-induced contraction was measured. The result is expressed in terms of -log ED50 and shown in the following table in which higher numerical value indicates higher activity.

[2] = U.S. Pat. No. 3,145,215; cited from earlier work
[3] = concentration causing 50% relaxation of the carbachol (1×10^-6 M)-induced contraction, cumulative administration, read-out: Activity (-log ED50) (converted)

| Compound | EC50 [1] [µM] | further results |
| --- | --- | --- |
| CCCCN1CCC(COC(=O)c2nn(C)c3ccccc23)CC1 [(1-butyl-4-piperidyl)methyl-1-methylindazole-3-carboxylate] |  | 5-HT4 receptor antagonist activity (in words) (5-HT4 receptor): has a 5-HT4 receptor antagonist activity |
| CCCCN1CCN(CCCNC(=O)c2nn(CCC)c3ccccc23)CC1 [Compound 1, N-[3-(4-n-Butyl-1-piperazinyl)propyl]-1-n-propylindazole-3-carboxamide] | 10.5 |  |
| CCCn1nc(C(=O)NCCN2CCN(C)CC2)c2ccccc21 [Compound 2, N-[2-(4-Methyl-1-piperazinyl)ethyl]-1-n-propylindazole-3-carboxamide] | 20.4 |  |
| CCCCN1CCN(CCNC(=O)c2nn(CCC)c3ccccc23)CC1 [Compound 3, N-[2-(4-n-Butyl-1-piperazinyl)ethyl]-1-n-propylindazole-3-carboxamide] | 2.4 |  |
| CCCn1nc(C(=O)NCC=C2CCN(C)CC2)c2ccccc21 [Compound 4, N-[2-(1-Methyl-4-piperidylidene)ethyl]-1-n-propylindazole-3-carboxamide] | 9.77 |  |
| CCCCN1CCC(=CCNC(=O)c2nn(CCC)c3ccccc23)CC1 [Compound 5, N-[2-(1-n-Butyl-4-piperidylidene)ethyl]-1-n-propylindazole-3-carboxamide] | 0.437 |  |
| CCCCN1CCCC(NC(=O)c2nn(CCC)c3ccccc23)CCC1 [Compound 6, N-(1-n-Butyl-5-octahydroazocinyl)-1-n-propylindazole-3-carboxamide] | 6.46 |  |
| CCCn1nc(C(=O)NCC2CCN(C)CC2)c2ccccc21 [Compound 7, N-(1-Methyl-4-piperidyl)methyl-1-n-propylindazole-3-carboxamide] | 5.01 |  |
| CCCn1nc(C(=O)NCCC2CCN(C)CC2)c2ccccc21 [Compound 8, N-[2-(1-Methyl-4-piperidyl)ethyl]-1-n-propylindazole-3-carboxamide] | 10.7 |  |
| O=C(NCC=C1CCN(Cc2ccc(F)cc2)CC1)c1n[nH]c2ccccc12 [Compound 9, N-[2-(1-p-Fluorobenzyl-4-piperidylidene)ethyl]-1H-indazole-3-carboxamide] |  | EC50 [1, 3]: 7.41 µM |
| O=C(NCCN1CCN(Cc2ccc(F)cc2)CC1)c1n[nH]c2ccccc12 [Compound 11, N-[2-(4-p-Fluorobenzyl-1-piperazinyl)ethyl]-1H-indazole-3-carboxamide] |  | EC50 [1, 3]: 12.6 µM |
| CCCn1nc(C(=O)NCC=C2CCN(Cc3ccc(F)cc3)CC2)c2ccccc21 [Compound 12, N-[2-(1-p-Fluorobenzyl-4-piperidylidene)ethyl]-1-n-propylindazole-3-carboxamide] | 3.39 |  |
| CCCCN1CCN(CCNC(=O)c2nn(C(C)CC)c3ccccc23)CC1 (stereo not drawn) [Compound 13, N-[2-(4-n-Butyl-1-piperazinyl)ethyl]-1-sec-butylindazole-3-carboxamide] | 5.5 |  |
| CCCCN1CCN(CCNC(=O)c2nn(C(CC)CC)c3ccccc23)CC1 [Compound 14, N-[2-(4-n-Butyl-1-piperazinyl)ethyl]-1-(3-pentyl)indazole-3-carboxamide] | 6.03 |  |
| CCCn1nc(C(=O)NCCN2CCN(Cc3ccc(F)cc3)CC2)c2ccccc21 [Compound 15, N-[2-(4-p-Fluorobenzyl-1-piperazinyl)ethyl]-1-n-propylindazole-3-carboxamide] | 6.76 |  |
| C=CCn1nc(C(=O)NCCN2CCN(Cc3ccc(F)cc3)CC2)c2ccccc21 [Compound 16, N-[2-(4-p-Fluorobenzyl-1-piperazinyl)ethyl]-1-allylindazole-3-carboxamide] | 7.41 |  |
| CCCn1nc(C(=O)NC2CCN(Cc3ccccc3)CC2)c2ccccc21 [Compound 17, N-(1-Benzyl-4-piperidyl)-1-n-propylindazole-3-carboxamide] | 3.39 |  |

| Compound | EC50 [1] [µM] | further results |
| --- | --- | --- |
| CCCCN1CCC(CNC(=O)c2nn(CCC)c3ccccc23)CC1 [Compound 18, N-(1-n-Butyl-4-piperidyl)methyl-1-n-propylindazole-3-carboxamide] | 7.94 |  |
| CCCCN1CCC(CCNC(=O)c2nn(CCC)c3ccccc23)CC1 [Compound 19, N-[2-(1-n-Butyl-4-piperidyl)ethyl]-1-n-propylindazole-3-carboxamide] | 1.29 |  |
| CCCn1nc(C(=O)NC2CCNCC2)c2ccccc21 [Compound 20, N-(4-Piperidyl)-1-n-propylindazole-3-carboxamide] | 112 |  |
| CCCn1nc(C(=O)NCC2CCNCC2)c2ccccc21 [Compound 21, N-(4-Piperidyl)methyl-1-n-propylindazole-3-carboxamide] | 47.9 |  |
| CCCn1nc(C(=O)NC2CCN(C)CC2)c2ccccc21 [Compound 22, N-(1-Methyl-4-piperidyl)-1-n-propylindazole-3-carboxamide] | 6.92 |  |
| CCCCN1CCC(NC(=O)c2nn(CCC)c3ccccc23)CC1 [Compound 23, N-(1-n-Butyl-4-piperidyl)-1-n-propylindazole-3-carboxamide] | 2.82 |  |
| C=CCN1CCN(CCNC(=O)c2nn(CCC)c3ccccc23)CC1 [Compound 25, N-[2-(4-Allyl-1-piperazinyl)ethyl]-1-n-propylindazole-3-carboxamide] | 6.03 |  |
| CCCN1CCN(CCNC(=O)c2nn(CCC)c3ccccc23)CC1 [Compound 26, N-[2-(4-n-Propyl-1-piperazinyl)ethyl]-1-n-propylindazole-3-carboxamide] | 8.91 |  |
| CCCCCN1CCN(CCNC(=O)c2nn(CCC)c3ccccc23)CC1 [Compound 27, N-[2-(4-n-Pentyl-1-piperazinyl)ethyl]-1-n-propylindazole-3-carboxamide] | 2.69 |  |
| CCCn1nc(C(=O)NCCN2CCN(Cc3ccc(OC)cc3)CC2)c2ccccc21 [Compound 28, N-[2-(4-p-Methoxybenzyl-1-piperazinyl)ethyl]-1-n-propylindazole-3-carboxamide] | 1.58 |  |
| CCCCN1CCN(CCNC(=O)c2nn(CC)c3ccccc23)CC1 [Compound 29, N-[2-(4-n-Butyl-1-piperazinyl)ethyl]-1-ethylindazole-3-carboxamide] | 10.2 |  |
| CCCCN1CCN(CCNC(=O)c2nn(C(C)C)c3ccccc23)CC1 [Compound 30, N-[2-(4-n-Butyl-1-piperazinyl)ethyl]-1-isopropylindazole-3-carboxamide] | 2.95 |  |
| CCCCN1CCN(CCNC(=O)c2nn(C3CCCC3)c3ccccc23)CC1 [Compound 31, N-[2-(4-n-Butyl-1-piperazinyl)ethyl]-1-cyclopentylindazole-3-carboxamide] | 5.01 |  |
| CCCCN1CCN(CCNC(=S)c2nn(CCC)c3ccccc23)CC1 [Compound 32, N-[2-(4-n-Butyl-1-piperazinyl)ethyl]-1-n-propylindazole-3-thiocarboxamide] |  | EC50 [1, 3]: 10.5 µM |
| CCCCN1CCN(CCNCc2nn(CCC)c3ccccc23)CC1 [Compound 33, 3-{N-[2-(4-n-Butyl-1-piperazinyl)ethyl]aminomethyl}-1-n-propylindazole] |  | EC50 [1, 3]: 29.5 µM |
| CN1CCN(CCNC(=O)c2n[nH]c3ccccc23)CC1 [N-[2-(4-methyl-1-piperazinyl)ethyl]-1H-indazole-3-carboxamide] |  | hypotensive activity (in words) [2]: has hypotensive activity |
